Assays:
[1] = biological target: T1, 3-hydroxy-3-methylglutaryl-coenzyme A reductase (Rattus norvegicus, UniProt P51639); assay: Inhibition of rat microsomal HMG-CoA reductase activity by 50%; conditions: read-out: I50
T1 sequence (P51639 whole entry): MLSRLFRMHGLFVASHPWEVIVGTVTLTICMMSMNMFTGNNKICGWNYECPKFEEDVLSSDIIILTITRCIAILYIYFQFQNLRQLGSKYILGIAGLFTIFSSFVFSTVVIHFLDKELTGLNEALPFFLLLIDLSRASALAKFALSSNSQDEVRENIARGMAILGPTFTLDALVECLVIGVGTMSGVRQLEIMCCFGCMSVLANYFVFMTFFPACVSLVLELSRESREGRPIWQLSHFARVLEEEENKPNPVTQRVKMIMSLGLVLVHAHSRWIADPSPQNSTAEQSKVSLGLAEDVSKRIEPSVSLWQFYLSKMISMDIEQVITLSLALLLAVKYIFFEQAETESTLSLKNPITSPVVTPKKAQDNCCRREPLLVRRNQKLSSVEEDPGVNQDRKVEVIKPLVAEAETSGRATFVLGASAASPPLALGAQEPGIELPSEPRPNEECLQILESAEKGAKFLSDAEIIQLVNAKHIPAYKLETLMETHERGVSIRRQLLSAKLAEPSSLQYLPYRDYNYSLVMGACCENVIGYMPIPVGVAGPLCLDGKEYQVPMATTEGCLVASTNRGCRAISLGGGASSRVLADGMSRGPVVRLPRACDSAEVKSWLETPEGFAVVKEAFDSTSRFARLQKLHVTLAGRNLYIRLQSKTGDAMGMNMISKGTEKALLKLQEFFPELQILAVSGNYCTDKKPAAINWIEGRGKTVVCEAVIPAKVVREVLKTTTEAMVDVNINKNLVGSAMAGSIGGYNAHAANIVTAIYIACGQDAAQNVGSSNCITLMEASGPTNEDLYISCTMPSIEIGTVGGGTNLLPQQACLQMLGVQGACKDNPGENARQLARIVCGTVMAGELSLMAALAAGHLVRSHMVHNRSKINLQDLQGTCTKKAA

Rattus norvegicus [2] = species on record: Rattus norvegicus; assay: Compound was tested for 50% inhibition of cholesterol synthesis in isolated rat hepatocytes.; type: functional; conditions: Hepatocyte, read-out: I50
Rattus norvegicus [3] = assay: Inhibitory activity for de novo cholesterol synthesis from [14C]acetate was determined in rat after oral administration (in vivo); type: functional
Rattus norvegicus [4] = assay: Inhibitory activity for de novo cholesterol synthesis from [14C]acetate was determined in rat after intravenous administration (in vivo); type: functional
Homo sapiens = species on record: Homo sapiens; assay: Compound was tested for 50% inhibition of cholesterol synthesis in human skin fibroblasts.; type: functional; conditions: read-out: I50

Row | IC50 [1] [nM] | Structure (SMILES) | IC50 (Rattus norvegicus [2]) [nM] | ED50 (Rattus norvegicus [3]) [mg/kg] | ED50 (Rattus norvegicus [4]) [mg/kg] | IC50 (Homo sapiens) [nM]
1 | 4600 | COP(=O)(CCc1c(C)cc(C)cc1-c1ccc(F)c(C)c1)C[C@@H](O)CC(=O)O (stereo partly specified) | – | – | – | –
2 | 1.9 | CC(C)c1c(/C=C/P(=O)(O)C[C@@H](O)CC(=O)O)n(-c2ccc(F)cc2)c2ccccc12 | – | – | – | –
3 | 21600 | COP(=O)(C[C@@H](O)CC(=O)O)OCc1c(C)cc(C)cc1-c1ccc(F)c(C)c1 (stereo partly specified) | – | – | – | –
4 | 4500 | Cc1cc(C)c(OCP(=O)(O)C[C@@H](O)CC(=O)O)c(-c2ccc(F)c(C)c2)c1 | – | – | – | –
5 | 6.7 | Cc1cc(C)c(/C=C/P(=O)(O)C[C@@H](O)CC(=O)O)c(-c2ccc(F)c(C)c2)c1 | – | – | – | –
6 | 297 | Cc1cc(C)c(C#CP(=O)(O)C[C@@H](O)CC(=O)O)c(-c2ccc(F)c(C)c2)c1 | – | – | – | –
7 | 70 | O=C(O)C[C@H](O)CP(=O)(O)C#CC1=C(c2ccc(F)cc2)c2ccccc2C12CC2 | – | – | – | –
8 | 162 | Cc1cc(C)c(COP(=O)(O)C[C@@H](O)CC(=O)O)c(-c2ccc(F)c(C)c2)c1 | 260 | > 10 | 0.14 | 327000
9 | 1.2 | Cc1cc(-c2ccc(F)c(C)c2)c(COP(=O)(O)C[C@@H](O)CC(=O)O)c(C(C)C)c1 | – | – | – | –
10 | 89300 | Cc1cc(C)c(CP(=O)(O)C[C@@H](O)CC(=O)O)c(-c2ccc(F)c(C)c2)c1 | – | – | – | –
11 | 120 | CC(C)c1c(CCP(=O)(O)C[C@@H](O)CC(=O)O)n(-c2ccc(F)cc2)c2ccccc12 | – | – | – | –
12 | 3.8 | Cc1cc(-c2ccc(F)c(C)c2)c(CCP(=O)(O)C[C@@H](O)CC(=O)O)c(C(C)C)c1 | – | – | – | –
13 | 26 | CC(C)n1c(/C=C/P(=O)(O)C[C@@H](O)CC(=O)O)c(-c2ccc(F)cc2)c2ccccc21 | – | – | – | –

The next lines start with the compound.

Row | Structure (SMILES) | IC50 [1] [nM] | IC50 (Rattus norvegicus [2]) [nM] | ED50 (Rattus norvegicus [3]) [mg/kg] | ED50 (Rattus norvegicus [4]) [mg/kg] | IC50 (Homo sapiens) [nM]
14 | Cc1cc(-c2ccc(F)c(C)c2)c(C#CP(=O)(O)C[C@@H](O)CC(=O)O)c(C(C)C)c1 | 8.5 | – | – | – | –
15 | CC(C)n1c(C#CP(=O)(O)C[C@@H](O)CC(=O)O)c(-c2ccc(F)cc2)c2ccccc21 | 6 | – | – | – | –
16 | CC[C@H](C)C(=O)O[C@H]1C[C@@H](C)C=C2C=C[C@H](C)[C@H](CC[C@@H](O)C[C@@H](O)CC(=O)[O-])[C@H]21.[Na+] | – | 146 | 0.4 | 0.033 | 19
17 | O=C(O)C[C@H](O)CP(=O)(O)C#CC1=C(c2ccc(F)cc2)c2ccccc2C12CCCC2 | 2.8 | 245 | 0.38 | 0.027 | 11000
18 | O=C(O)C[C@H](O)CP(=O)(O)C#CC1=C(c2ccc(F)cc2)c2ccccc2C12CCCCC2 | 3 | – | – | – | –
19 | CCc1c(C#CP(=O)(O)C[C@@H](O)CC(=O)O)n(-c2ccc(F)cc2)c2ccccc12 | 87.5 | – | – | – | –
20 | COP(=O)(C[C@@H](O)CC(=O)O)NCc1c(C)cc(C)cc1-c1ccc(F)c(C)c1 (stereo partly specified) | 70500 | – | – | – | –
21 | Cc1cc(C)c(CCCP(=O)(O)C[C@@H](O)CC(=O)O)c(-c2ccc(F)c(C)c2)c1 | 150000 | – | – | – | –
22 | O=C(O)C[C@H](O)CP(=O)(O)/C=C/C1=C(c2ccc(F)cc2)c2ccccc2C12CCCC2 | 2.1 | – | – | – | –
23 | Cc1cc(C)c(/C=C\P(=O)(O)C[C@@H](O)CC(=O)O)c(-c2ccc(F)c(C)c2)c1 | 3000 | – | – | – | –
24 | CC[C@H](C)C(=O)O[C@H]1C[C@H](O)C=C2C=C[C@H](C)[C@H](CC[C@@H](O)C[C@@H](O)CC(=O)[O-])[C@H]21.[Na+] [PRAVASTATIN SODIUM] | 26 | 100 | 0.75 | 0.053 | 3100
25 | CC(C)n1c(CCP(=O)(O)C[C@@H](O)CC(=O)O)c(-c2ccc(F)cc2)c2ccccc21 | 24 | – | – | – | –
26 | CC(C)c1c(C#CP(=O)(O)C[C@@H](O)CC(=O)O)n(-c2ccc(F)cc2)c2ccccc12 | 2.2 | 93 | 1.1 | 0.09 | 8900
27 | CCc1c(CCP(=O)(O)C[C@@H](O)CC(=O)O)n(-c2ccc(F)cc2)c2ccccc12 | 13 | – | – | – | –
28 | Cc1cc(C)c(CCP(=O)(O)C[C@@H](O)CC(=O)O)c(-c2ccc(F)c(C)c2)c1 | 15 | 85 | 6.7 | 0.05 | 64000

From ChEMBL document CHEMBL1125000, “Phosphorus-containing inhibitors of HMG-CoA reductase. 1. 4-[(2-arylethyl)hydroxyphosphinyl]-3-hydroxy-butanoic acids: a new class of cell-selective inhibitors of cholesterol biosynthesis” (J Med Chem, 1990)
